Results reported in the NIST ThermoML archive (doi:10.1021/acs.jced.5b00820).

Experiment: xn = mol fraction of the nth substance listed
Details: 102.2 kPa, Liquid, Vibrating tube method

C[Si](C)(O[Si](C)(C)c1ccccc1)c1ccccc1 [1,3-diphenyltetramethyldisiloxane] + C=C[Si]1(C)O[Si](C)(C=C)O[Si](C)(C=C)O[Si](C)(C=C)O1
mass density [kg/m3]
Details | 308.15 K | 313.15 K | 318.15 K | 323.15 K | 328.15 K
x1 = 0.0511 | 972.67 | 967.57 | 962.46 | 957.29 | 952.25
x1 = 0.1004 | 972.68 | 967.63 | 962.58 | 957.53 | 952.52
x1 = 0.1503 | 972.67 | 967.67 | 962.67 | 957.67 | 952.66
x1 = 0.2 | 972.66 | 967.72 | 962.77 | 957.83 | 952.88
x1 = 0.2537 | 972.63 | 967.74 | 962.86 | 957.97 | 953.1
x1 = 0.3001 | 972.56 | 967.72 | 962.9 | 958.06 | 953.26
x1 = 0.3507 | 972.42 | 967.63 | 962.84 | 958.04 | 953.25
x1 = 0.4002 | 972.3 | 967.56 | 962.83 | 958.06 | 953.33
x1 = 0.4503 | 972.13 | 967.44 | 962.77 | 958.08 | 953.42
x1 = 0.4999 | 971.87 | 967.23 | 962.58 | 957.92 | 953.25
x1 = 0.5501 | 971.69 | 967.12 | 962.54 | 957.94 | 953.39
x1 = 0.597 | 971.42 | 966.89 | 962.34 | 957.8 | 953.24
x1 = 0.6498 | 971.17 | 966.7 | 962.23 | 957.76 | 953.3
x1 = 0.7005 | 970.8 | 966.35 | 961.92 | 957.49 | 953.06
x1 = 0.7492 | 970.45 | 966.08 | 961.71 | 957.33 | 952.96
x1 = 0.8001 | 970.05 | 965.73 | 961.41 | 957.09 | 952.78
x1 = 0.8497 | 969.63 | 965.36 | 961.11 | 956.85 | 952.59
x1 = 0.8999 | 969.05 | 964.82 | 960.59 | 956.35 | 952.09
x1 = 0.9502 | 968.57 | 964.4 | 960.23 | 956.03 | 951.87
x1 = 1 | 968.05 | 963.94 | 959.84 | 955.74 | 951.65

C[Si](C)(O[Si](C)(C)c1ccccc1)c1ccccc1 [1,3-diphenyltetramethyldisiloxane] + C=C[Si](C)(C)O[Si](C)(C)C=C
mass density [kg/m3]
Details | 308.15 K | 313.15 K | 318.15 K | 323.15 K | 328.15 K
x1 = 0.0502 | 809.57 | 804.7 | 799.79 | 794.89 | 789.94
x1 = 0.1 | 820.63 | 815.84 | 811.01 | 806.21 | 801.35
x1 = 0.1487 | 831.07 | 826.38 | 821.62 | 816.9 | 812.12
x1 = 0.2002 | 841.7 | 837.11 | 832.41 | 827.77 | 823.05
x1 = 0.2498 | 851.61 | 847.08 | 842.45 | 837.87 | 833.22
x1 = 0.3 | 861.28 | 856.78 | 852.19 | 847.66 | 843.06
x1 = 0.3503 | 870.64 | 866.2 | 861.68 | 857.2 | 852.68
x1 = 0.3994 | 879.46 | 875.05 | 870.55 | 866.12 | 861.63
x1 = 0.4502 | 888.32 | 883.96 | 879.52 | 875.17 | 870.72
x1 = 0.5001 | 896.73 | 892.42 | 888.02 | 883.7 | 879.29
x1 = 0.5498 | 904.84 | 900.61 | 896.23 | 891.95 | 887.57
x1 = 0.6002 | 912.8 | 908.56 | 904.21 | 899.93 | 895.59
x1 = 0.6502 | 920.47 | 916.26 | 911.95 | 907.71 | 903.38
x1 = 0.7004 | 927.9 | 923.73 | 919.47 | 915.27 | 911
x1 = 0.7504 | 935.1 | 930.94 | 926.72 | 922.51 | 918.26
x1 = 0.8003 | 942.07 | 937.9 | 933.7 | 929.52 | 925.3
x1 = 0.8498 | 948.8 | 944.66 | 940.48 | 936.33 | 932.14
x1 = 0.8986 | 955.23 | 951.09 | 946.94 | 942.83 | 938.64
x1 = 0.9502 | 961.82 | 957.69 | 953.57 | 949.47 | 945.33
x1 = 1 | 967.99 | 963.87 | 959.76 | 955.68 | 951.57
